Measurements from ChEMBL document CHEMBL1147416, “Aza-bicyclic amino acid sulfonamides as alpha(4)beta(1)/alpha(4)beta(7) integrin antagonists” (Bioorg Med Chem Lett, 2004).

How the values were obtained:
[1] = In vitro inhibition of binding of integrin alpha4-beta7 to immobilized MAdCAM-1 expressed on epithelial cell surface.; format: functional, cell-based
Integrin alpha-4/beta-1 = Integrin alpha-4/beta-1 (Homo sapiens, UniProt P05556+P13612); assay: In vitro inhibition of binding of integrin alpha4-beta1 to immobilized VCAM-1 expressed on endothelial cell surface.; format: functional, cell-based
Integrin alpha-4/beta-1, sequence (P05556 whole entry): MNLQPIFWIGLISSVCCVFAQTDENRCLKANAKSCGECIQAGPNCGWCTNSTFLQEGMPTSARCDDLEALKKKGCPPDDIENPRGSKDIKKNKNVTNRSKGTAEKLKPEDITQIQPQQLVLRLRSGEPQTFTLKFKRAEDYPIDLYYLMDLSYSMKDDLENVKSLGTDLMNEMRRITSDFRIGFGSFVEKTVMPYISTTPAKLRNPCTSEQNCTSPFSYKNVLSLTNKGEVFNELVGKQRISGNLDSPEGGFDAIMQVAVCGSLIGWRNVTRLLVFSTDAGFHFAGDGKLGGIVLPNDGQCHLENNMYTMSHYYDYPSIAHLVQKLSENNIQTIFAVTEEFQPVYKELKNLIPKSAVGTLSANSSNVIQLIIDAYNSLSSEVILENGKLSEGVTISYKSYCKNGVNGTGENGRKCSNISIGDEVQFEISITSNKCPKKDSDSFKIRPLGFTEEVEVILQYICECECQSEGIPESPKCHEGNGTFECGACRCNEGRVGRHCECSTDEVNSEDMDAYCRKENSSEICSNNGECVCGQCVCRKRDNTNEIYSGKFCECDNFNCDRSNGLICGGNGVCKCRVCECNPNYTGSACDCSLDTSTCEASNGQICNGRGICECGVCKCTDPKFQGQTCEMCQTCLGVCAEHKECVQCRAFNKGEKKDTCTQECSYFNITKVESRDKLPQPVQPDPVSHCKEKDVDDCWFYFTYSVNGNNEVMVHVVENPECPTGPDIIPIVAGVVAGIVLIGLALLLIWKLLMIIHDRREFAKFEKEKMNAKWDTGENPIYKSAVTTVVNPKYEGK
Integrin alpha-4/beta-1, sequence (P13612 whole entry): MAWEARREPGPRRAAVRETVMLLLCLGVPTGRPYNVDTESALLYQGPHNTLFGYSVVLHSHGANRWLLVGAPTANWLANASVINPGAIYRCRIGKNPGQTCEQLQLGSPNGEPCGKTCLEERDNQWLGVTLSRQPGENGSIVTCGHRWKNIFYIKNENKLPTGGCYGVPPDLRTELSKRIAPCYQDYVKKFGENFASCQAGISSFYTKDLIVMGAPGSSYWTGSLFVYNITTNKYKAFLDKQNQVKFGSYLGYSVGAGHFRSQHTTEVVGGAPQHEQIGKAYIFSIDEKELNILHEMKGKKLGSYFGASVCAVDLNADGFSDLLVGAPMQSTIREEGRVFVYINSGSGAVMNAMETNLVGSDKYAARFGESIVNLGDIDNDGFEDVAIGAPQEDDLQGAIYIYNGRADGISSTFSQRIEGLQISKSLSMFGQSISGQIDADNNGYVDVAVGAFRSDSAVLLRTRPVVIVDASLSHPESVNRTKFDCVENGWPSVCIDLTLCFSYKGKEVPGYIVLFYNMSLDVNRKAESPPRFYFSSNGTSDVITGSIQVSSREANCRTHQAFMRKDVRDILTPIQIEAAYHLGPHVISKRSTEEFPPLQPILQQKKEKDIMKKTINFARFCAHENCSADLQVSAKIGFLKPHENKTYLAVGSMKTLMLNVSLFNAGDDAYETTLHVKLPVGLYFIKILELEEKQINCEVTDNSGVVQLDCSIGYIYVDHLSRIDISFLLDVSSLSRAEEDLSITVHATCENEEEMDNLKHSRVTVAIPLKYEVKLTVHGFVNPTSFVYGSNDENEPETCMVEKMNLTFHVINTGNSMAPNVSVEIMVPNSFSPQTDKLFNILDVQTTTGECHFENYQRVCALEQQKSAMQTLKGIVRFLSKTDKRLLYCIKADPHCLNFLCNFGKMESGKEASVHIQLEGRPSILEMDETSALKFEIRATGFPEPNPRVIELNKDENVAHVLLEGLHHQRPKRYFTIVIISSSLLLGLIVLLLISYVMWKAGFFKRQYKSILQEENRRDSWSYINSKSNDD

[2] = Inhibition of integrin alpha4-beta7 binding to immobilized MAdCAM-1 (mucosal addressin cell adhesion molecule-1) of epithelial cells at 5 uM; format: functional

| Structure (SMILES) | IC50 [1] [nM] | IC50 (Integrin alpha-4/beta-1) [nM] | inhibition at 5 µM [2] [%] |
| --- | --- | --- | --- |
| O=C(Nc1ccc(C[C@H](NC(=O)[C@H]2C3CCC(CC3)N2S(=O)(=O)c2ccccc2)C(=O)O)cc1)c1c(Cl)cccc1Cl |  | 1600 |  |
| Cc1ccc(S(=O)(=O)N2C3CCC(CC3)C2C(=O)N[C@@H](Cc2ccc(NC(=O)c3c(Cl)cc(Cl)cc3Cl)cc2)C(=O)O)cc1 (some centres undefined) | 430 |  |  |
| COc1cccc(OC)c1-c1ccc(C[C@H](NC(=O)[C@@H]2C[C@@H](c3ccccc3)CN2S(=O)(=O)c2ccccc2)C(=O)O)cc1 | 119 | 30 |  |
| O=C(Nc1ccc(C[C@H](NC(=O)C2C3CCC(CC3)N2S(=O)(=O)c2c(Cl)cccc2Cl)C(=O)O)cc1)c1cc(Cl)nc(Cl)c1 (some centres undefined) | 11 | 105 |  |
| Cc1ccc(S(=O)(=O)N2C3CCC(CC3)C2C(=O)N[C@@H](Cc2ccc(NC(=O)Nc3c(Cl)cccc3Cl)cc2)C(=O)O)cc1 (some centres undefined) |  | 1600 |  |
| Cc1ccc(S(=O)(=O)N2C3CCC(CC3)C2C(=O)N[C@@H](Cc2ccc(NC(=O)Cc3c(Cl)cccc3Cl)cc2)C(=O)O)cc1 (some centres undefined) |  |  | 28 |
| Cc1ccc(S(=O)(=O)N2C3CCC(CC3)C2C(=O)N[C@@H](Cc2ccc(NC(=O)c3c(Cl)cccc3Cl)cc2)C(=O)O)cc1 (some centres undefined) | 320 |  |  |
| CC(=O)N1CSC[C@@H]1C(=O)N[C@@H](Cc1ccc(OCc2c(Cl)cccc2Cl)cc1)C(=O)O | 90 | 410 |  |
| O=C(Nc1ccc(C[C@H](NC(=O)[C@@H]2C3CCC(CC3)N2S(=O)(=O)c2ccccc2)C(=O)O)cc1)c1c(Cl)cccc1Cl | 94 | 19 |  |
| O=C(Nc1ccc(C[C@H](NC(=O)[C@@H]2C3CCC(CC3)N2S(=O)(=O)c2cccs2)C(=O)O)cc1)c1c(Cl)cccc1Cl | 62 | 30 |  |
| Cc1ccc(S(=O)(=O)N2C3CCC(CC3)C2C(=O)N[C@@H](Cc2ccc(NC(=O)c3ccccc3)cc2)C(=O)O)cc1 (some centres undefined) |  |  | 30 |
| O=C(Nc1ccc(C[C@H](NC(=O)[C@@H]2C3CCC(CC3)N2S(=O)(=O)c2cccc3ccncc23)C(=O)O)cc1)c1cc(Cl)nc(Cl)c1 | 22 | 12 |  |
| O=C(Nc1ccc(C[C@H](NC(=O)C2C3CCC(CC3)N2S(=O)(=O)c2cc(Cl)c(Cl)s2)C(=O)O)cc1)c1cc(Cl)nc(Cl)c1 (some centres undefined) | 14 | 69 |  |
| O=C(Nc1ccc(C[C@H](NC(=O)[C@@H]2C3CCC(CC3)N2S(=O)(=O)c2ccccc2)C(=O)O)cc1)c1ccncc1 | 175 | 36 |  |

Further compounds by falling IC50 [1], results first:

| IC50 [1] [nM] | IC50 (Integrin alpha-4/beta-1) [nM] | Structure (SMILES) | inhibition at 5 µM [2] [%] |
| --- | --- | --- | --- |
| 312 |  | O=C(O)[C@H](Cc1ccc(N2C(=O)c3ccccc3C2=O)cc1)NC(=O)[C@@H]1C2CCC(CC2)N1S(=O)(=O)c1ccccc1 |  |
| 151 | 150 | O=C(Nc1ccc(C[C@H](NC(=O)[C@@H]2C3CCC(CC3)N2S(=O)(=O)c2cccc3cccnc23)C(=O)O)cc1)c1cc(Cl)nc(Cl)c1 |  |
| 102 | 81 | O=C(Nc1ccc(C[C@H](NC(=O)C2C3CCC(CC3)N2S(=O)(=O)c2ccccc2C(F)(F)F)C(=O)O)cc1)c1cc(Cl)nc(Cl)c1 (some centres undefined) |  |
| 90 |  | COc1cccc(OC)c1-c1ccc(C[C@H](NC(=O)[C@@H]2C3CCC(CC3)N2S(=O)(=O)c2ccccc2)C(=O)O)cc1 |  |
| 64 | 11 | O=C(Nc1ccc(C[C@H](NC(=O)C2C3CCC(CC3)N2S(=O)(=O)c2ccc(Cl)s2)C(=O)O)cc1)c1cc(Cl)nc(Cl)c1 (some centres undefined) |  |
| 32 | 5 | O=C(Nc1ccc(C[C@H](NC(=O)[C@@H]2C3CCC(CC3)N2S(=O)(=O)c2cccs2)C(=O)O)cc1)c1cc(Cl)nc(Cl)c1 |  |
| 13 | 12 | O=C(Nc1ccc(C[C@H](NC(=O)[C@@H]2C3CCC(CC3)N2S(=O)(=O)c2ccccc2)C(=O)O)cc1)c1cc(Cl)nc(Cl)c1 |  |
